Test results from PubChem BioAssay AID1259418 (Broad Institute, 2018).
“And” between values parts separate entries of the source, which are not always exact repeats. Identical values can stand only once. Inconclusive results are not listed. The source made the active and inactive calls.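 Rule for the calls: active = fitted half-maximal concentration of signal decrease at or below twice the sample's top tested concentration; inconclusive = flat curve between -70 and -30 percent, or poor fit; inactive = flat within 30 percent, signal rise, or potency above limit.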

What follows are compounds tested against T. gondii ME49Luc in IFN-y HeLa, luciferase, 72 h (assay: inhibitors of Toxoplasma growth in IFN-γ-primed HeLa – cell-based, ME49Luc, luciferase, 72 h, dose response (AID 1259418)).

Row | Structure (SMILES) | AC50
1 | C[C@H](CO)N1C[C@H](C)[C@H](CN(C)C(=O)c2cc(Cl)cc(Cl)c2)OCc2ccccc2-c2c(n(C)c3ccccc23)C1=O | 9.22 µM
2 | O=C(CC1N=C2c3ccccc3N=C(SCc3ccc(Cl)cc3)N2C1=O)NCCc1ccccc1 (configuration not stated) | 20.4 µM
3 | O=C(c1ccc[nH]1)N1CCC2(CC1)COCCN(c1ncccn1)C2 | 7.07 µM
4 | CCCNC(=O)c1cc(-c2ccn(CC3CC3)n2)n2ccccc12 | 26.9 µM
5 | COc1cccc(-c2ccc3c(c2)[C@@H]2[C@@H](CCN2C(=O)c2ccccc2F)[C@H](CO)N3C)c1 | 14.4 µM and 10.9 µM
6 | CN(C)c1nc(N2CCCC2)nc2c1CCN(Cc1ccoc1)CC2 | 16 µM
7 | COc1ccc(N(Cc2nc(-c3ccccc3OC)oc2C)S(=O)(=O)c2ccc(C)cc2)cc1 | 19.3 µM
8 | CC(C)Cc1ccc(S(=O)(=O)N2CCC3(CC2)NCCN=C3NCc2ccc(F)cc2)cc1 | 6.29 µM
9 | COc1cccc(-c2nc3c(s2)CN(S(=O)(=O)c2ccccc2C)CC3)c1 | 6.95 µM and 17.2 µM
10 | Clc1cccc(CN2CCC3(COCc4cnc(-c5ccccc5)nc43)C2)c1 (configuration not stated) | 18.2 µM and 10.4 µM
11 | Cc1ccc(C(=O)Nc2ccc3c(c2)CCC(=O)N3)s1 | 11.6 µM
12 | COc1ccccc1-c1nc(CN(c2ccccc2OC)S(=O)(=O)c2ccc(C)cc2)c(C)o1 | 12.4 µM
13 | CCOc1ccc(-c2nc(CN(c3cccc(OC)c3)S(=O)(=O)c3ccccc3C)c(C)o2)cc1 | 34.5 µM
14 | O=S(=O)(c1cccs1)N1CCC2(CC1)NCCN=C2NCc1ccc(Cl)cc1 | > 39 µM (inactive)
15 | CCc1cnc(N2[C@@H](C#N)[C@@H](c3ccc(C#Cc4ccccc4F)cc3)[C@@H]2CO)s1 | 17.2 µM
16 | CC(C)CC#Cc1ccc([C@H]2[C@H]3CN(C(=O)c4cccc(F)c4)CC(=O)N3[C@H]2CO)cc1 | 20.3 µM
17 | CCCCC(CC)CNC(=O)CC1Nc2c3ccccc3nc(=S)n2C1=O (configuration not stated) | 17.9 µM
18 | Cc1ccc(C(=O)Nc2c(C(=O)NCc3cccnc3)[nH]c3ccccc23)cc1 | > 39 µM (inactive)
19 | CCc1nc(OCC(=O)Nc2ccc(F)c(Cl)c2)c2ccccc2n1 | > 39 µM (inactive)
20 | COc1ccc(N(Cc2nc(-c3ccccc3OC)oc2C)S(=O)(=O)c2cccs2)cc1 | 3.72 µM
21 | O=C(Cc1ccncc1)N1CCCCN2[C@@H](CO)[C@H](c3ccc(C#Cc4ccccc4F)cc3)[C@@H]2C1 | 13.5 µM and 17.9 µM
22 | COc1ccc(-c2nc(C)c(-c3ccc(SCc4cccc(C(F)(F)F)c4)nn3)s2)cc1 | > 39 µM (inactive)
23 | Cc1ccc(C)c(S(=O)(=O)N2CCC3(CC2)NCCN=C3NCc2ccccc2Cl)c1 | 5.36 µM

Row | Structure (SMILES) | AC50
24 | Cc1ccc2[nH]c(C(=O)NCc3ccncc3)c(NC(=O)c3ccc(F)cc3)c2c1 | 1.99 µM
25 | COc1cccc(CNC2=NCCNC23CCN(S(=O)(=O)c2ccc4c(c2)CCCC4)CC3)c1 | 16.3 µM
26 | O=C(c1cccc2[nH]ccc12)N1CCCC1c1nc(-c2cccc(Cl)c2)no1 (configuration not stated) | 23.3 µM
27 | COc1ccc(OC)c(S(=O)(=O)N2CCc3c([nH]c4ccccc34)C2c2cccc(F)c2)c1 (configuration not stated) | > 39 µM (inactive)
28 | COc1ccc(-c2nc(NCCCN3CCCCC3C)c3ccccc3n2)cc1 (configuration not stated) | 13.9 µM
29 | O=C(c1ccco1)N1CCC2(CC1)Nc1ccc(Cl)cc1-n1cccc12 | 32.1 µM
30 | CSc1cccc(NC(=O)CN2CCC3(CC2)N=C(c2cccc(Cl)c2)C(=O)N3)c1 | 23.8 µM
31 | Cc1cc(C)c(S(=O)(=O)N2CCC3(CC2)NCCN=C3NCc2ccc3c(c2)OCO3)cc1C | 9.23 µM
32 | Cc1ccc(-c2nc(CN3CCN(C(=O)Nc4ccc(C)c(C)c4)CC3)c(C)o2)cc1 | 23.2 µM
33 | CCCC#Cc1ccc([C@H]2[C@H](CO)N3C(=O)CN(C(=O)Nc4cccc(F)c4)C[C@@H]23)cc1 | 10.4 µM
34 | C=CC[C@@H]1CC=C[C@@H](C)N1C(=O)CCn1c(C)cc(C)nc1=O | 26.4 µM
35 | COc1cccc(C#Cc2ccc([C@@H]3[C@H](C#N)N(C(=O)c4ccccn4)[C@H]3CO)cc2)c1 | 20.7 µM
36 | Cc1ccc(CNC2=NCCNC23CCN(S(=O)(=O)c2ccc(C)c(C)c2)CC3)cc1 | 7.83 µM
37 | CN1C(=O)c2cc(NC(=O)c3cccc(F)c3)ccc2OC[C@H]2O[C@@H](CC(=O)NCC3CCCCC3)CC[C@@H]21 | 21.5 µM
38 | CN(C)CCNC(=O)c1c2c(NCc3cccnc3)ncnc2n2ccccc12 | 32.4 µM
39 | Oc1cccc(-c2nccn2-c2cccc(-c3ccn[nH]3)c2)c1 | 22.7 µM
40 | CCOc1ccccc1-c1nc(CN(c2ccccc2OC)S(=O)(=O)c2ccccc2)c(C)o1 | 7.68 µM
41 | COc1ccc(-c2nc(NCCCN3CCN(C)CC3)c3ccccc3n2)cc1 | 14.4 µM
42 | COc1ccc(Cl)cc1NC(=O)COc1nc(C)nc2ccccc12 | 24.1 µM
43 | COc1cccc(S(=O)(=O)N2CCCCN3[C@H](CO)[C@H](c4ccc(C#CC5CC5)cc4)[C@H]3C2)c1 | 10.8 µM and 2.78 µM
44 | COc1ccc(CNC2=NCCNC23CCN(S(=O)(=O)c2ccc(CC(C)C)cc2)CC3)cc1 | 6.46 µM
45 | COCCC(=O)C1Cc2nc(-c3ccccc3)sc2N1CC1CC1 (configuration not stated) | 27.2 µM and 15.5 µM
46 | OC[C@H]1Nc2ccc(C#Cc3ccc(F)cc3)cc2[C@H]2[C@@H]1CCN2Cc1ccc2c(c1)OCO2 | 20 µM

Row | Structure (SMILES) | AC50
47 | O=C(NC1CCCCC1)N1C[C@@H]2N[C@H](C1)C2c1ccc(-c2ccc(F)cc2)cc1 (some centres not stated) | 22.7 µM
48 | CCCC(C)c1c(-c2ccccc2)ncn1Cc1cnc(C)cn1 (configuration not stated) | 33.4 µM
49 | CS(=O)(=O)N1CC(=O)N2[C@H](C1)[C@@H](c1ccc(C#CCC3CCCC3)cc1)[C@@H]2CO | 19.2 µM
50 | CCc1ccc(S(=O)(=O)N2CCC3(CC2)NCCN=C3NCc2ccc(F)cc2)cc1 | 6.64 µM
51 | Cc1ccccc1-c1ccc([C@H]2[C@@H](CO)N3CCCCN(S(=O)(=O)Cc4ccccc4)C[C@H]23)cc1 | 17.6 µM and 13.3 µM
52 | CN1C(=O)c2cc(NC(=O)c3cccc(F)c3)ccc2OC[C@H]2O[C@@H](CC(=O)NCC3CCCCC3)CC[C@H]21 | 18.6 µM and 10.5 µM and 24.5 µM
53 | Cc1ccc(-c2cc(C(F)(F)F)nn2-c2ccc(S(N)(=O)=O)cc2)cc1 | 22.2 µM
54 | COc1ccc(-c2nc(NCCCN3CCCC(C)C3)c3ccccc3n2)cc1 (configuration not stated) | > 20 µM (inactive)
55 | O=C(CC1Nc2c3ccccc3nc(=S)n2C1=O)N1CCN(c2ccccc2F)CC1 (configuration not stated) | 29.7 µM
56 | Cc1ccc(-c2nc(Cn3nnc(-c4nc(-c5ccccc5)no4)c3C)c(C)o2)cc1 | > 20 µM (inactive)
57 | COc1ccc(S(=O)(=O)N(C)C[C@H]2Oc3c(NC(=O)c4nc5ccccc5s4)cccc3C(=O)N([C@@H](C)CO)C[C@@H]2C)cc1 | 1.77 µM and 0.196 µM
58 | CCCCNC(=O)CCC1N=C2c3ccccc3N=C(SCc3ccc(Cl)cc3)N2C1=O (configuration not stated) | 17 µM
59 | O=C(CC1N=C2c3ccccc3N=C(SCc3ccccc3Cl)N2C1=O)NCc1ccco1 (configuration not stated) | > 39 µM (inactive)
60 | CCCCC(=O)N1CCC2(CC1)Nc1ccc(Cl)cc1-n1cccc12 | > 39 µM (inactive)
61 | CC(C)Cc1ccc(S(=O)(=O)N2CCC3(CC2)NCCN=C3NCc2ccc(Cl)cc2)cc1 | 12.4 µM
62 | N#C[C@H]1[C@H](c2ccc(-c3cccc(F)c3)cc2)[C@@H](CO)N1C(=O)NC1CCCC1 | 16.7 µM
63 | CCOc1ccc(N(Cc2nc(-c3ccccc3)oc2C)S(=O)(=O)c2ccccc2)cc1 | 7.95 µM
64 | CCCNc1nc(-c2ccccc2Cl)nc2ccccc12 | 23.9 µM
65 | O=C(c1ccc(-n2nc(C(F)(F)F)c3c2CCCC3)cc1)N1CCN(C2CCCCC2)CC1 | 10.1 µM and > 39 µM (inactive)
66 | Cc1cc(C)cc(S(=O)(=O)N2CCC3(CC2)NCCN=C3NCc2ccc(C(F)(F)F)cc2)c1 | 6.65 µM
67 | CC(C)CC#Cc1ccc([C@H]2[C@H]3CN(C(=O)Nc4cc(F)ccc4F)CC(=O)N3[C@H]2CO)cc1 | > 39 µM (inactive) and 8.8 µM
